Consider 2 molecules from PMC4805124 (Biochemistry, 2015).

One test has as its system InhA. The note with it: cited from earlier work.
The target in test [1] is T1, InhA^WT (Mycobacterium tuberculosis, UniProt P9WGR1). The class given is biochemical.
Test [2] concerns the target T1, InhA^WT. It is filed as binding.

Values joined by “and” are separate entries in the source; they are usually repeats but may differ in a detail not shown here. Identical values can stand only once. Like-named read-outs stand apart in the source and are kept apart here.

T1 sequence (P9WGR1 whole entry, looked up): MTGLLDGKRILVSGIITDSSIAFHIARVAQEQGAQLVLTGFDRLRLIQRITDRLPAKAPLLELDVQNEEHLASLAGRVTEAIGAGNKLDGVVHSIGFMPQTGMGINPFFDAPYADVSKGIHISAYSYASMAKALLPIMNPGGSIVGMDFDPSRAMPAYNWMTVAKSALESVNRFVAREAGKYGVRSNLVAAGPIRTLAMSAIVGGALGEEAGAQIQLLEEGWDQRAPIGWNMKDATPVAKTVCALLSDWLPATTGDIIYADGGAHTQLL

As to `CCCCCCc1ccc(Oc2ccccc2C)c(O)c1` [PT70, 2-(o-tolyoxy)-5-hexylphenol], in the test on InhA, the residence time was 40 min. Besides, the Ki at InhA (slow-onset, tight binding inhibitor) is 0.0006 µM. At InhA^WT [1], the “Ki^app/Ki*^app” value stood at 10.8, the k5 turned out to be 0.40 ± 0.01 min⁻¹, the k6 is 0.025 ± 0.002 min⁻¹ and the “tR (1/k6)” value is recorded as 40 ± 2 min. The ΔΔG on InhA^WT [1] is 1.41 and 1.41 kcal mol^−1. Besides, on InhA^WT [1] (read-out: Ki*^app), the Ki is 0.024 µM and 0.0237 µM. In addition, the Ki at InhA^WT [1] (read-out: Ki^app) was determined as 0.256 ± 0.038 µM. For the same molecule, the “tR (^32P- NAD)” value on InhA^WT [2] is on record as 37 ± 2 min.
In the case of `Cc1ccccc1Oc1ccc(Cn2cc(-c3ccccc3)nn2)cc1O` [PT163, 5-((4-phenyl-1H-1,2,3-triazol-1-yl)methyl)-2-(o-tolyloxy)phenol], on InhA^WT [1], the k5 came to 0.44 ± 0.06 min⁻¹, the k6 is 0.011 ± 0.001 min⁻¹, the “tR (1/k6)” value is 94 ± 3 min and the ΔΔG stood at 2.26 kcal/mol. Also, the “tR (^32P- NAD)” value on InhA^WT [2] was 114 min and 114 ± 18 min.
